Columns and labels:
[1] = target: T1, Alpha-2C adrenergic receptor (Homo sapiens, UniProt P18825); experiment: DRUGMATRIX: Adrenergic Alpha-2C radioligand binding (ligand: [3H] MK-912); type: cell membranes, Sf9, Membrane; conditions: sf9
T1 sequence (P18825 whole entry): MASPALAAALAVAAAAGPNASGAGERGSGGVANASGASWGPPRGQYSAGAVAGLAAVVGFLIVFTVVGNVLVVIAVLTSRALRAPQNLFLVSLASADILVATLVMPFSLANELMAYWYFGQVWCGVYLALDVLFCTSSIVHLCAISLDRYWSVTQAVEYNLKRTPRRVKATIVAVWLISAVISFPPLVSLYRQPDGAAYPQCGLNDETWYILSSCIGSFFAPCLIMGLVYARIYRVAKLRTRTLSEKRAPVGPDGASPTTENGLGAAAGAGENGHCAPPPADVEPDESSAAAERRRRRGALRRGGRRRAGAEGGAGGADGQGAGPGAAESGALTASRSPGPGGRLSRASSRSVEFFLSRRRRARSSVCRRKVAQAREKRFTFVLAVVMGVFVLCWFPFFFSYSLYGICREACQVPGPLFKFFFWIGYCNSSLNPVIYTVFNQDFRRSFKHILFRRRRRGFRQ

[2] = target: Beta-1 adrenergic receptor (Homo sapiens, UniProt P08588); experiment: DRUGMATRIX: Adrenergic beta1 radioligand binding (ligand: [125I] Cyanopindolol); type: cell membranes, CHO-K1, Membrane; conditions: cho-k1; Not Active = under 50% inhibition at 10 µM
[3] = DRUGMATRIX: Serotonin (5-Hydroxytryptamine) 5-HT3 radioligand binding (ligand: [3H] GR-65630); type: cell membranes, Membrane; conditions: hek293; Not Active = under 50% inhibition at 10 µM
[4] = target: T2, C-X-C chemokine receptor type 1 (Homo sapiens, UniProt P25024); note: in other assays of this panel Not Active means under 50% inhibition at 10 µM
T2 sequence (P25024 whole entry): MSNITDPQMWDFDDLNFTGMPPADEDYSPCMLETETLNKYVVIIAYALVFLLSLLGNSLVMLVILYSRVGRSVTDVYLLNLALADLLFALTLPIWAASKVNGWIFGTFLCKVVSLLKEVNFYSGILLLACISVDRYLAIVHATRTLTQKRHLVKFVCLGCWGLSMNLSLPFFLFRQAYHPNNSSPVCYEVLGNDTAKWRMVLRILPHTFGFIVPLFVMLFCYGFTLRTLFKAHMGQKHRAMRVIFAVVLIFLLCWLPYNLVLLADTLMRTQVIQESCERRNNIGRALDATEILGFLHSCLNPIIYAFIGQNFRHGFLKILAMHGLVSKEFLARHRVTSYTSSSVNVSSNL

[5] = target: T3, C-X-C chemokine receptor type 2 (Homo sapiens, UniProt P25025); type: cell membranes, Membrane; conditions: cho-k1; note: in other assays of this panel Not Active means under 50% inhibition at 10 µM
T3 sequence (P25025 whole entry): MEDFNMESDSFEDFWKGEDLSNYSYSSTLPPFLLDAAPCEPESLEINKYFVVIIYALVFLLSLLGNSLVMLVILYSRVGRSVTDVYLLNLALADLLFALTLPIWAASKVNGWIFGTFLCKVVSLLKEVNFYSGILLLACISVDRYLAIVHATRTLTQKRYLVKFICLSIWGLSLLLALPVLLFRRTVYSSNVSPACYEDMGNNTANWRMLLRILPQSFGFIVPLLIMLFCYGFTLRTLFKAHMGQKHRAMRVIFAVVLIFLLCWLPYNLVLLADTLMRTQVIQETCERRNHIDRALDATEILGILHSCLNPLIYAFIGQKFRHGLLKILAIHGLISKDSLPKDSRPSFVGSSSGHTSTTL

[6] = DRUGMATRIX: Phorbol Ester radioligand binding (ligand: [3H] PDBu); type: cell membranes, Mus musculus, ICR, Brain, Membrane; conditions: Not Active = under 50% inhibition at 10 µM
[7] = target: T4, Cathepsin G (Homo sapiens, UniProt P08311); type: tissue-based; conditions: neutrophil;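 note: inhibition of Cathepsin G enzyme activity, tested on an AMC-conjugated peptide substrate; in other assays of this panel Not Active means under 50% inhibition at 10 µM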
T4 sequence (P08311 whole entry): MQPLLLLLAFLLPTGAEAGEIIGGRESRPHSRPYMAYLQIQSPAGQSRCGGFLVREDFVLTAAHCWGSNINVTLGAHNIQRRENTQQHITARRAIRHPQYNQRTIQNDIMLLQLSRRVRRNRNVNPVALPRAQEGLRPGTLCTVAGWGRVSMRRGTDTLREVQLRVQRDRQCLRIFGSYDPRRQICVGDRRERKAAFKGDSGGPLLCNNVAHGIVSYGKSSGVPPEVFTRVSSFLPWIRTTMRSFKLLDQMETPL

[8] = target: T5, Cytochrome P450 2A6 (Homo sapiens, UniProt P11509); conditions: bti-tn-5b1-4; note: in other assays of this panel Not Active means under 50% inhibition at 10 µM
T5 sequence (P11509 whole entry): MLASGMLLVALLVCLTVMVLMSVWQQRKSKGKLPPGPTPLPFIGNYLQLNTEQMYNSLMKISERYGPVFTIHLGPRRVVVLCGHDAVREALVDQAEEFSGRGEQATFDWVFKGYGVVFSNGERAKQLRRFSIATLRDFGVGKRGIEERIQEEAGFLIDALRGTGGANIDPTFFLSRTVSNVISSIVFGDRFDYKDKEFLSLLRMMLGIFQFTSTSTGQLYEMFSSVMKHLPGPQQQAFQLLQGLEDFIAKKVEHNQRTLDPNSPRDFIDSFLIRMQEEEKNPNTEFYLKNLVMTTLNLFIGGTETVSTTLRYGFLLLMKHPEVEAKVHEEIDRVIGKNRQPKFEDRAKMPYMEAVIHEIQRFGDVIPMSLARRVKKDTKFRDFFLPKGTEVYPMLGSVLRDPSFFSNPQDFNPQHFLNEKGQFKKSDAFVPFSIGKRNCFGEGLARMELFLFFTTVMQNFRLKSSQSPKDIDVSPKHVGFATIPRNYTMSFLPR

[9] = target: Voltage-gated inwardly rectifying potassium channel KCNH2 (Homo sapiens, UniProt Q12809); conditions: hek293; note: in other assays of this panel Not Active means under 50% inhibition at 10 µM
Sequence of Voltage-gated inwardly rectifying potassium channel KCNH2 (Q12809 whole entry): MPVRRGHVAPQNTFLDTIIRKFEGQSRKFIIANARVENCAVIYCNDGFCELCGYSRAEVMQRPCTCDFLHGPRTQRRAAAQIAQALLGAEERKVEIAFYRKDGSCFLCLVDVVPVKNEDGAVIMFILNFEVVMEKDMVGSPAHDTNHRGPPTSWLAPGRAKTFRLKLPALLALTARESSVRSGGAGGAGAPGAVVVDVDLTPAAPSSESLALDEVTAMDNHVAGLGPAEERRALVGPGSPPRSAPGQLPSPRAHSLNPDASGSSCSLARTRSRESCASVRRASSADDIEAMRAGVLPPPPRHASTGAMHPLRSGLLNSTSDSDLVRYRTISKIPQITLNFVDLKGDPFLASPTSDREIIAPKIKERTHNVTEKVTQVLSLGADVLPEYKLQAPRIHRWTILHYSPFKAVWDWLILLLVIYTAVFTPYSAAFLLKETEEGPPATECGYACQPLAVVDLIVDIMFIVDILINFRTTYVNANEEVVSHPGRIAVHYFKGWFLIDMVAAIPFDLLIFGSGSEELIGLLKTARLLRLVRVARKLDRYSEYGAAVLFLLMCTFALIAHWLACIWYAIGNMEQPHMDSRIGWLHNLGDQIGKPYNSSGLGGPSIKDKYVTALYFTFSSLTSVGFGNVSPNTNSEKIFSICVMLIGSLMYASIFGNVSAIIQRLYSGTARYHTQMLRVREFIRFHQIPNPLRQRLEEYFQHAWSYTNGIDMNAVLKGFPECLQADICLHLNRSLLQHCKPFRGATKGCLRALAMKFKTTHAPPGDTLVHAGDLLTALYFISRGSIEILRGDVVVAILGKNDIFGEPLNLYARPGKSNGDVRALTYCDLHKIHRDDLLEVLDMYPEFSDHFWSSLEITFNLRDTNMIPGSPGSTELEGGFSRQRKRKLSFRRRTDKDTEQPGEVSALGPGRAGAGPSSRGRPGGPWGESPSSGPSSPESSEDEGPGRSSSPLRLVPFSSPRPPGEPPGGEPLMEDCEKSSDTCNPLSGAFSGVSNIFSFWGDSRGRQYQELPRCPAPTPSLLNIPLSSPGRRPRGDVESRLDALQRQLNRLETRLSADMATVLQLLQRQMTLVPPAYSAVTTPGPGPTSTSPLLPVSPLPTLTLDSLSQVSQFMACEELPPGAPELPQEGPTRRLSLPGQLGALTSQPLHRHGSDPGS

Sequence of Beta-1 adrenergic receptor (P08588 whole entry): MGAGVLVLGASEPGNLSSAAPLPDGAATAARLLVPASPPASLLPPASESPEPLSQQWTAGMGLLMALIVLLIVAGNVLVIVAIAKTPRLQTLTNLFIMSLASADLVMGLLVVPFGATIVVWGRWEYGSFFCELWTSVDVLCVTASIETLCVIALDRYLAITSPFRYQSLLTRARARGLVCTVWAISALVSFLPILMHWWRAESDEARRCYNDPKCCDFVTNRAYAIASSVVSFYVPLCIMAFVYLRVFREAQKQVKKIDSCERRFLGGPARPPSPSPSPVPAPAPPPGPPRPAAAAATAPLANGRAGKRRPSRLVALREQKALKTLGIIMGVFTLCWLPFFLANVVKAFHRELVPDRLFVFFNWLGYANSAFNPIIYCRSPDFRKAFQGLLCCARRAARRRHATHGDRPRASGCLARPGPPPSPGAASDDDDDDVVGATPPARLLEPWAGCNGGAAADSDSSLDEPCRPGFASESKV

NC1CCN(c2nc3c(cc2F)c(=O)c(C(=O)O)cn3-c2ccc(F)cc2F)C1 (stereo unspecified) [TOSUFLOXACIN]
Not Active: IC50 [1] | IC50 [2] | IC50 [3] | Ki [3] | IC50 [4] | IC50 [5] | IC50 [6] | Ki [6] | IC50 [7] | IC50 [8] | Ki [8] | IC50 [9] | Ki [9]

N#Cc1ccc(C(c2ccc(C#N)cc2)n2cncn2)cc1 [LETROZOLE]
Not Active: IC50 [1] | IC50 [2] | IC50 [3] | Ki [3] | IC50 [4] | IC50 [5] | IC50 [6] | Ki [6] | IC50 [7] | IC50 [8] | Ki [8] | IC50 [9] | Ki [9]

O=C(Nc1ccc(Br)cc1)c1cc(Br)cc(Br)c1O [TRIBROMSALAN]
Not Active: IC50 [1] | IC50 [2] | IC50 [3] | Ki [3] | IC50 [4] | IC50 [5] | IC50 [6] | Ki [6] | IC50 [7] | IC50 [8] | Ki [8] | IC50 [9] | Ki [9]

O=C1Nc2ccc(Cl)cc2C(c2ccccc2Cl)=NC1O (stereo unspecified) [LORAZEPAM]
Not Active: IC50 [1] | IC50 [2] | IC50 [3] | Ki [3] | IC50 [4] | IC50 [5] | IC50 [6] | Ki [6] | IC50 [7] | IC50 [8] | Ki [8] | IC50 [9] | Ki [9]

CC(C)Oc1ccc2c(=O)c(-c3ccccc3)coc2c1 [IPRIFLAVONE]
Not Active: IC50 [1] | IC50 [2] | IC50 [3] | Ki [3] | IC50 [4] | IC50 [5] | IC50 [6] | Ki [6] | IC50 [7] | IC50 [8] | Ki [8] | IC50 [9] | Ki [9]

CNC1(c2ccccc2Cl)CCCCC1=O (stereo unspecified) [KETAMINE]
Not Active: IC50 [1] | IC50 [2] | IC50 [3] | Ki [3] | IC50 [4] | IC50 [5] | IC50 [6] | Ki [6] | IC50 [7] | IC50 [8] | Ki [8] | IC50 [9] | Ki [9]

O=C(O)c1cn(-c2ccc(F)cc2)c2cc(N3CCNCC3)c(F)cc2c1=O [SARAFLOXACIN]
Not Active: IC50 [1] | IC50 [2] | IC50 [3] | Ki [3] | IC50 [4] | IC50 [5] | IC50 [6] | Ki [6] | IC50 [7] | IC50 [8] | Ki [8] | IC50 [9] | Ki [9]
